Several values for one entry are separate records, joined by “and”; a condition that tells them apart may be missing. Equal entries are not always repeated. Inconclusive results and toxic doses are left out.
System: CD2F1 mice, L1210 leukemia ip, survival T/C
Assay: NCI In Vivo Anticancer Drug Screen. Data for tumor model L1210 Leukemia (intraperitoneal) in CD2F1 (CDF1) mice
Details: higher = longer survival
Outline: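 Antitumor effect is scored in animals hosting a serially transplanted tumor. Values compare compound-dosed animals against vehicle-only controls as a simple quotient.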

[1] = endpoint: mean survival time, dose: 100.0 mg/kg/injection, schedule: Q04DX003 (ip), vehicle: saline with Tween-80
[2] = endpoint: mean survival time, dose: 100.0 mg/kg/injection, schedule: Q01DX001 (ip), vehicle: saline with Tween-80
[3] = endpoint: mean survival time, dose: 200.0 mg/kg/injection, schedule: Q01DX001 (ip), vehicle: saline with Tween-80
[4] = endpoint: mean survival time, dose: 50.0 mg/kg/injection, schedule: Q01DX009 (ip), vehicle: saline with Tween-80
[5] = endpoint: mean survival time, dose: 50.0 mg/kg/injection, schedule: Q04DX003 (ip), vehicle: saline with Tween-80
[6] = endpoint: mean survival time, dose: 100.0 mg/kg/injection, schedule: Q01DX009 (ip), vehicle: saline with Tween-80
[7] = endpoint: mean survival time, dose: 200.0 mg/kg/injection, schedule: Q04DX003 (ip), vehicle: saline with Tween-80
[8] = endpoint: mean survival time, dose: 400.0 mg/kg/injection, schedule: Q04DX003 (ip), vehicle: saline with Tween-80
[9] = endpoint: mean survival time, dose: 100.0 mg/kg/injection, schedule: Q04DX002 (ip), vehicle: saline with Tween-80
[10] = endpoint: mean survival time, dose: 200.0 mg/kg/injection, schedule: Q04DX002 (ip), vehicle: saline with Tween-80
[11] = endpoint: mean survival time, dose: 400.0 mg/kg/injection, schedule: Q04DX002 (ip), vehicle: saline with Tween-80

Structure (SMILES): CCC/C=C/C=C/C(=O)OC1/C(=C/C(=O)OC)CC2CC(C(C)O)OC(=O)CC(O)CC3CC(OC(C)=O)C(C)(C)C(O)(CC4C/C(=C/C(=O)OC)CC(/C=C/C(C)(C)C1(O)O2)O4)O3 (configuration not stated)
- T/C (endpoint: median survival time, dose: 18.75 micrograms/kg/injection, schedule: Q01DX009 (ip), vehicle: saline + alcohol): 113 % of control and 117 % of control
- T/C (endpoint: median survival time, dose: 37.5 micrograms/kg/injection, schedule: Q01DX009 (ip), vehicle: saline + alcohol): 124 % of control
- T/C (endpoint: median survival time, dose: 150.0 micrograms/kg/injection, schedule: Q01DX009 (ip), vehicle: saline + alcohol): 151 % of control

Structure (SMILES): CC12CCC(C1)C(C)(C)C2(O)c1ccccc1 (configuration not stated)
- T/C [1]: 92 % of control

Structure (SMILES): CC(C)CCCCN(CCCCC(C)C)CC(O)c1cc2c(c3ccccc13)CCCC2 (configuration not stated)
- T/C [2]: 94 % of control
- T/C [3]: 97 % of control
- T/C (endpoint: mean survival time, dose: 400.0 mg/kg/injection, schedule: Q01DX001 (ip), vehicle: saline with Tween-80): 102 % of control

Structure (SMILES): CCOC(=O)c1cnc(=O)[nH]c1N
- T/C (endpoint: mean survival time, dose: 25.0 mg/kg/injection, schedule: Q01DX009 (ip), vehicle: saline with Tween-80): 101 % of control
- T/C (endpoint: mean survival time, dose: 25.0 mg/kg/injection, schedule: Q04DX003 (ip), vehicle: saline with Tween-80): 104 % of control
- T/C [4]: 104 % of control
- T/C [5]: 98 % of control
- T/C [6]: 96 % of control
- T/C [1]: 89 % of control and 100 % of control
- T/C [7]: 98 % of control

Structure (SMILES): CCCCn1c(C)nc2c(N)cc(C(F)(F)F)cc21
- T/C (endpoint: mean survival time, dose: 12.5 mg/kg/injection, schedule: Q01DX009 (ip), vehicle: Klucel (hydroxypropylcellulose) (HPC)): 100 % of control
- T/C (endpoint: mean survival time, dose: 25.0 mg/kg/injection, schedule: Q01DX001 (ip), vehicle: Klucel (hydroxypropylcellulose) (HPC)): 96 % of control
- T/C (endpoint: mean survival time, dose: 25.0 mg/kg/injection, schedule: Q01DX009 (ip), vehicle: Klucel (hydroxypropylcellulose) (HPC)): 91 % of control
- T/C (endpoint: mean survival time, dose: 25.0 mg/kg/injection, schedule: Q04DX003 (ip), vehicle: Klucel (hydroxypropylcellulose) (HPC)): 96 % of control
- T/C (endpoint: mean survival time, dose: 50.0 mg/kg/injection, schedule: Q01DX001 (ip), vehicle: Klucel (hydroxypropylcellulose) (HPC)): 102 % of control
- T/C (endpoint: mean survival time, dose: 50.0 mg/kg/injection, schedule: Q01DX009 (ip), vehicle: Klucel (hydroxypropylcellulose) (HPC)): 100 % of control
- T/C (endpoint: mean survival time, dose: 50.0 mg/kg/injection, schedule: Q04DX003 (ip), vehicle: Klucel (hydroxypropylcellulose) (HPC)): 100 % of control
- T/C (endpoint: mean survival time, dose: 100.0 mg/kg/injection, schedule: Q01DX001 (ip), vehicle: Klucel (hydroxypropylcellulose) (HPC)): 97 % of control
- T/C (endpoint: mean survival time, dose: 100.0 mg/kg/injection, schedule: Q01DX009 (ip), vehicle: Klucel (hydroxypropylcellulose) (HPC)): 102 % of control
- T/C (endpoint: mean survival time, dose: 100.0 mg/kg/injection, schedule: Q04DX003 (ip), vehicle: Klucel (hydroxypropylcellulose) (HPC)): 93 % of control
- T/C (endpoint: mean survival time, dose: 200.0 mg/kg/injection, schedule: Q01DX001 (ip), vehicle: Klucel (hydroxypropylcellulose) (HPC)): 94 % of control
- T/C (endpoint: mean survival time, dose: 200.0 mg/kg/injection, schedule: Q04DX003 (ip), vehicle: Klucel (hydroxypropylcellulose) (HPC)): 100 % of control

Structure (SMILES): COc1cccc2c1C(=O)c1c(O)c3c(c(O)c1C2=O)C[C@@](O)(C(=O)CO)C[C@@H]3OC1CC(N)CC(C)O1 (some centres not stated)
- T/C (endpoint: median survival time, dose: 0.75 mg/kg/injection, schedule: Q01DX009 (ip), vehicle: water): 154 % of control
- T/C (endpoint: median survival time, dose: 1.5 mg/kg/injection, schedule: Q01DX009 (ip), vehicle: water): 200 % of control
- T/C (endpoint: median survival time, dose: 3.0 mg/kg/injection, schedule: Q01DX009 (ip), vehicle: water): 108 % of control

Structure (SMILES): CC(=O)OC(CNCC(=O)O)C(Cl)(Cl)Cl (configuration not stated)
- T/C [1]: 102 % of control
- T/C [7]: 98 % of control
- T/C [8]: 98 % of control

Structure (SMILES): CCOC(=O)/C(Cc1cc(Cl)nnc1Cl)=N\N
- T/C (endpoint: mean survival time, dose: 12.5 mg/kg/injection, schedule: Q04DX002 (ip), vehicle: saline with Tween-80): 113 % of control
- T/C (endpoint: mean survival time, dose: 25.0 mg/kg/injection, schedule: Q04DX002 (ip), vehicle: saline with Tween-80): 98 % of control
- T/C (endpoint: mean survival time, dose: 50.0 mg/kg/injection, schedule: Q04DX002 (ip), vehicle: saline with Tween-80): 87 % of control

Structure (SMILES): CCN(CC)c1ccc(NC(=O)c2ccc(C(=O)Nc3ccc(N(CC)CC)cc3)cc2)cc1
- T/C (endpoint: mean survival time, dose: 100.0 mg/kg/injection, schedule: Q01DX001 (ip), vehicle: saline): 89 % of control
- T/C (endpoint: mean survival time, dose: 200.0 mg/kg/injection, schedule: Q01DX001 (ip), vehicle: saline): 92 % of control
- T/C (endpoint: mean survival time, dose: 400.0 mg/kg/injection, schedule: Q01DX001 (ip), vehicle: saline): 92 % of control

Structure (SMILES): C[Si](C)(C)C1C=CC=C1
- T/C [9]: 100 % of control
- T/C [10]: 100 % of control
- T/C [11]: 92 % of control

Structure (SMILES): CCOC(=O)Nc1cc([N+](C)(C)C)ccc1OCCOc1ccc([N+](C)(C)C)cc1
- T/C (endpoint: mean survival time, dose: 0.15 mg/kg/injection, schedule: Q04DX003 (ip), vehicle: Klucel (hydroxypropylcellulose) (HPC)): 100 % of control
- T/C (endpoint: mean survival time, dose: 0.3 mg/kg/injection, schedule: Q04DX003 (ip), vehicle: Klucel (hydroxypropylcellulose) (HPC)): 90 % of control
- T/C (endpoint: mean survival time, dose: 0.6 mg/kg/injection, schedule: Q04DX003 (ip), vehicle: Klucel (hydroxypropylcellulose) (HPC)): 100 % of control

Structure (SMILES): CCCCCCCCCCCC(=O)NC(=S)Nc1cc(Cl)ccc1Cl
- T/C (endpoint: mean survival time, dose: 50.0 mg/kg/injection, schedule: Q01DX001 (ip), vehicle: saline with Tween-80): 89 % of control
- T/C [5]: 92 % of control
- T/C [2]: 89 % of control
- T/C [6]: 86 % of control and 94 % of control
- T/C [9]: 98 % of control
- T/C [1]: 92 % of control
- T/C [3]: 92 % of control
- T/C (endpoint: mean survival time, dose: 200.0 mg/kg/injection, schedule: Q01DX009 (ip), vehicle: saline with Tween-80): 86 % of control and 92 % of control
- T/C [10]: 98 % of control
- T/C [11]: 98 % of control
- T/C [8]: 86 % of control

Structure (SMILES): CCN(CC)C(=O)c1ccncc1
- T/C (endpoint: mean survival time, dose: 100.0 mg/kg/injection, schedule: Q04DX003 (ip), vehicle: saline): 101 % of control
- T/C (endpoint: mean survival time, dose: 200.0 mg/kg/injection, schedule: Q04DX003 (ip), vehicle: saline): 104 % of control
- T/C (endpoint: mean survival time, dose: 400.0 mg/kg/injection, schedule: Q04DX003 (ip), vehicle: saline): 101 % of control

Structure (SMILES): COc1ccc(S(=O)(=O)N/N=C/C(=O)O)cc1
- T/C (endpoint: mean survival time, dose: 6.25 mg/kg/injection, schedule: Q01DX009 (ip), vehicle: saline with Tween-80): 115 % of control
- T/C (endpoint: mean survival time, dose: 12.5 mg/kg/injection, schedule: Q01DX009 (ip), vehicle: alkali diluted with water): 114 % of control
- T/C (endpoint: mean survival time, dose: 12.5 mg/kg/injection, schedule: Q01DX009 (ip), vehicle: saline with Tween-80): 121 % of control
- T/C (endpoint: mean survival time, dose: 12.5 mg/kg/injection, schedule: Q04DX003 (ip), vehicle: other): 109 % of control
- T/C (endpoint: mean survival time, dose: 25.0 mg/kg/injection, schedule: Q01DX009 (ip), vehicle: alkali diluted with water): 116 % of control
- T/C (endpoint: mean survival time, dose: 25.0 mg/kg/injection, schedule: Q04DX003 (ip), vehicle: other): 117 % of control
- T/C (endpoint: mean survival time, dose: 50.0 mg/kg/injection, schedule: Q01DX009 (ip), vehicle: alkali diluted with water): 124 % of control
- T/C [4]: 163 % of control
- T/C (endpoint: mean survival time, dose: 50.0 mg/kg/injection, schedule: Q04DX003 (ip), vehicle: other): 124 % of control
- T/C [6]: 151 % of control
- T/C (endpoint: mean survival time, dose: 100.0 mg/kg/injection, schedule: Q04DX003 (ip), vehicle: other): 154 % of control
- T/C (endpoint: mean survival time, dose: 200.0 mg/kg/injection, schedule: Q01DX009 (ip), vehicle: alkali diluted with water): 153 % of control
- T/C (endpoint: mean survival time, dose: 200.0 mg/kg/injection, schedule: Q04DX003 (ip), vehicle: other): 155 % of control and 163 % of control and 203 % of control
- T/C (endpoint: median survival time, dose: 12.5 mg/kg/injection, schedule: Q01DX009 (oral), vehicle: saline with Tween-80): 105 % of control
- T/C (endpoint: median survival time, dose: 25.0 mg/kg/injection, schedule: Q01DX009 (oral), vehicle: saline with Tween-80): 105 % of control
- T/C (endpoint: median survival time, dose: 50.0 mg/kg/injection, schedule: Q01DX009 (oral), vehicle: saline with Tween-80): 103 % of control
- T/C (endpoint: median survival time, dose: 100.0 mg/kg/injection, schedule: Q01DX009 (oral), vehicle: saline with Tween-80): 95 % of control
- T/C (endpoint: median survival time, dose: 200.0 mg/kg/injection, schedule: Q01DX009 (oral), vehicle: saline with Tween-80): 98 % of control
- T/C (endpoint: median survival time, dose: 400.0 mg/kg/injection, schedule: Q01DX009 (oral), vehicle: saline with Tween-80): 105 % of control

Structure (SMILES): CSc1ccc(NC(=O)C(O)C(O)C(O)C(O)CO)cc1 (configuration not stated)
- T/C (endpoint: mean survival time, dose: 100.0 mg/kg/injection, schedule: Q01DX009 (ip), vehicle: saline): 103 % of control
- T/C (endpoint: mean survival time, dose: 200.0 mg/kg/injection, schedule: Q01DX009 (ip), vehicle: saline): 113 % of control
- T/C (endpoint: mean survival time, dose: 400.0 mg/kg/injection, schedule: Q01DX009 (ip), vehicle: saline): 102 % of control

Structure (SMILES): N=C1c2ccccc2-c2ccccc21
- T/C [4]: 101 % of control
- T/C [6]: 96 % of control

— PubChem BioAssay AID256 (DTP/NCI, 2004)
